For 20 compounds, IC50 results are on record in patent US8193189B2, “Quinoxaline derivatives as tyrosine kinase activity inhibitors” (Novartis AG, priority 2007, dated 2012).

Some results are limits rather than exact numbers.

For orientation: IC50 means the concentration that inhibits the measured activity by half.

Holding throughout (type): biochemical
One assay has as its target T1, GST-JAK2(808-1132) (Homo sapiens, UniProt O60674).
T1 construct: GST-JAK2(808-1132); purchased Invitrogen (Carlsbad, USA) #4288
The assay is described as follows: EPK JAK-family kinases profiling assay (Caliper mobility shift), JAK2. The settings on record: ATP 20 μM, 1.8 nM kinase. From the text:
(§1) All four kinases of the JAK-family kinases were used as purified recombinant GST-fusion proteins, containing the active kinase domains. GST-JAK1(866-1154), GST-JAK3(811-1124), and GST-TYK2(888-1187) were expressed and purified by affinity chromatography at the EPK biology unit. GST-JAK2(808-1132) was purchased from Invitrogen (Carlsbad, USA, #4288).
(§2) The kinase assays were based on the Caliper mobility shift assay using the LabChip 3000 systems. This technology is similar to capillary electrophoresis and uses charge driven separation of substrate and product in a microfluidic chip.
(§3) All kinase reactions were performed in 384 well microtiter plates in a total reaction volume of 18 μl. The assay plates were prepared with 0.1 μl per well of test compound in the appropriate test concentration, as described under the section “preparation of compound dilutions”. The reactions were started by combining 9 μl of substrate mix (consisting of peptide and ATP) with 9 μl of kinase dilution. The reactions were incubated for 60 minutes at 30° C. and stopped by adding 70 μl of stop buffer (100 mM Hepes, 5% DMSO, 0.1% Coating reagent, 10 mM EDTA, 0.015% Brij 35).
(§4) Fluorescently labeled synthetic peptides were used as substrates in all reactions. […] Specific assay conditions are described in Table 1:
(§5) The terminated reactions were transferred to the Caliper LabChip 3000 reader and the turnover of each reaction was measured by determining the substrate/product ratio.
(§6) Test compounds were dissolved in DMSO (10 mM) and transferred into 1.4 mL flat bottom or V-shaped Matrix tubes carrying a unique 2D matrix chip by individual compound hubs. The numbers of these chips were distinctively linked to the individual compound identification numbers. The stock solutions were stored at −20° C. if not used immediately. For the test procedure the vials were defrosted and identified by a scanner whereby a working sheet was generated that guided the subsequent working steps.
(§7) Compound dilutions were made in 96 well plates. This format enabled the assay of maximally 40 individual test compounds at 8 concentrations (single points) including 4 reference compounds. The dilution protocol included the production of pre-dilution plates, master plates and assay plates:
(§8) Pre-dilution plates: 96 polypropylene well plates were used as pre-dilution plates. A total of 4 pre-dilution plates were prepared including 10 test compounds each on the plate positions A1-A10, one standard compound at A11 and one DMSO control at A12. All dilution steps were done on a HamiltonSTAR robot.
(§9) Master plates: 100 μL of individual compound dilutions including standard compound and controls of the 4 “pre-dilution plates” were transferred into a 384 “master plate” including the following concentrations 1′820, 564, 182, 54.6, 18.2, 5.46, 1.82 and 0.546 μM, respectively in 90% of DMSO.
(§10) Assay plates: Identical assay plates were then prepared by pipetting 100 nL each of compound dilutions of the master plates into 384-well “assay plates”. […] The preparation of the master plates were handled by the Matrix PlateMate Plus robot and replication of assay plates by the HummingBird robot.

The next assay concerns the target T2, GST-JAK3(811-1124) (Homo sapiens, UniProt P52333).
T2 construct: GST-JAK3(811-1124); made in house
As to the kind of experiment: EPK JAK-family kinases profiling assay (Caliper mobility shift), JAK3. Particulars: ATP 80 μM, 6 nM kinase.
Description: as §1, §2, §3, §4, §5, §6, §7, §8, §9, §10

The next assay concerns the target T3, GST-JAK1(866-1154) (Homo sapiens, UniProt P23458).
T3 construct: GST-JAK1(866-1154); made in house
The assay is described as follows: EPK JAK-family kinases profiling assay (Caliper mobility shift), JAK1. Particulars: ATP 40 μM, 50 nM kinase.
Description: as §1, §2, §3, §4, §5, §6, §7, §8, §9, §10

T2 sequence (P52333 811-1124): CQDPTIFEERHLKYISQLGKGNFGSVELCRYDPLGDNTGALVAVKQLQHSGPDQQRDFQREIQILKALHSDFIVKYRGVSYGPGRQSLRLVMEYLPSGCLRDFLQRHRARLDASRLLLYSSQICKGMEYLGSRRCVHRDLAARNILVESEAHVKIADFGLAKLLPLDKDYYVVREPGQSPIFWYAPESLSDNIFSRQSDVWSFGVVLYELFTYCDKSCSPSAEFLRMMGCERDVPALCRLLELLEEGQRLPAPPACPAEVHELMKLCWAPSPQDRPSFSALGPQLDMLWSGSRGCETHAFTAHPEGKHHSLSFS
T3 sequence (P23458 866-1154): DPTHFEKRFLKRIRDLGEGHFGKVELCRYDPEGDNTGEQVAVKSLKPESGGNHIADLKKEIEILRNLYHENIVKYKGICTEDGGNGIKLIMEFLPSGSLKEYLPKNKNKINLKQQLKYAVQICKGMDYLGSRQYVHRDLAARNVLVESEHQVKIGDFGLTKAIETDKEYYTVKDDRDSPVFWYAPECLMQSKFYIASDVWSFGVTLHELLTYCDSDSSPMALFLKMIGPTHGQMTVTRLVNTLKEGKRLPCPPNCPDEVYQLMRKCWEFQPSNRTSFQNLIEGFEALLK
T1 sequence (O60674 808-1132): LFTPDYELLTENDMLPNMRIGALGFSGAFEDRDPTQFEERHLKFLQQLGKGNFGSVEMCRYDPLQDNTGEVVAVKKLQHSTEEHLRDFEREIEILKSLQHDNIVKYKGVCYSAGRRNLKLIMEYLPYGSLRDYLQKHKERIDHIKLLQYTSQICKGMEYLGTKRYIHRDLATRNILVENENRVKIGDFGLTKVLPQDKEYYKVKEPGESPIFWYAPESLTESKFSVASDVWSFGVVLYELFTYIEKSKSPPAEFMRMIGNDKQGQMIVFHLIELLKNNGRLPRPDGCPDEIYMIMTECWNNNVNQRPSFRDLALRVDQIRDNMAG

In the case of `COc1cc(-c2cnc3cccc(-c4ccc(C(=O)N5CCOCC5)cc4F)c3n2)cc(OC)c1OC` [Example 1, {3-Fluoro-4-[3-(3,4,5-trimethoxy-phenyl)-quinoxalin-5-yl]-phenyl}-morpholin-4-yl-methanone], the values for the IC50 on GST-JAK2(808-1132) and on GST-JAK3(811-1124) were 82 nM and 4400 nM, respectively.
As to `COc1cc(-c2cnc3cccc(-c4ccc(S(C)(=O)=O)cc4)c3n2)cc(OC)c1OC` [Example 2, 8-(4-Methanesulfonyl-phenyl)-2-(3,4,5-trimethoxy-phenyl)-quinoxaline], the figures for the IC50 at GST-JAK2(808-1132) and at GST-JAK3(811-1124) were 120 nM and 5400 nM, respectively.
As for `COc1cc(-c2cnc3cccc(-c4ccc(S(=O)(=O)C(C)C)cc4)c3n2)cc(OC)c1OC` [Example 4, 8-[4-(Propane-2-sulfonyl)-phenyl]-2-(3,4,5-trimethoxy-phenyl)-quinoxaline], the half-inhibitory concentration (IC50) at GST-JAK2(808-1132) is 220 nM; at GST-JAK3(811-1124), above 10000 nM.
Take `COc1cc(-c2cnc3cccc(-c4ccc(S(N)(=O)=O)cc4)c3n2)cc(OC)c1OC` [Example 5, 4-[3-(3,4,5-Trimethoxy-phenyl)-quinoxalin-5-yl]-benzenesulfonamide]: the values for the IC50 at GST-JAK2(808-1132) and at GST-JAK3(811-1124) were 110 nM and above 10000 nM, respectively.
Taken in the same sequence, the figures for `CCNS(=O)(=O)c1ccc(-c2cccc3ncc(-c4cc(OC)c(OC)c(OC)c4)nc23)cc1` [Example 7, N-Ethyl-4-[3-(3,4,5-trimethoxy-phenyl)-quinoxalin-5-yl]-benzenesulfonamide] were 95 nM and 8420 nM.
As to `COc1cc(-c2cnc3cccc(-c4ccc(S(=O)(=O)N(C)C)cc4)c3n2)cc(OC)c1OC` [Example 8, N,N-Dimethyl-4-[3-(3,4,5-trimethoxy-phenyl)-quinoxalin-5-yl]-benzenesulfonamide], the IC50 is 110 nM on GST-JAK2(808-1132) and above 10000 nM on GST-JAK3(811-1124).
Taken in the same sequence, the figures for `CNC(=O)c1ccc(-c2cccc3ncc(-c4cc(OC)c(OC)c(OC)c4)nc23)cc1` [Example 9, N-Methyl-4-[3-(3,4,5-trimethoxy-phenyl)-quinoxalin-5-yl]-benzamide] were 170 nM and above 10000 nM.
For the compound `COc1cc(-c2cnc3cccc(-c4ccc(CC(=O)N5CCOCC5)cc4)c3n2)cc(OC)c1OC` [Example 11, 1-Morpholin-4-yl-2-{4-[3-(3,4,5-trimethoxy-phenyl)-quinoxalin-5-yl]-phenyl}-ethanone], the IC50 on GST-JAK1(866-1154) was 39 nM; on GST-JAK2(808-1132) it was 9 nM.
Take `COc1cc(-c2cnc3cccc(-c4ccc(NS(C)(=O)=O)cc4)c3n2)cc(OC)c1OC` [Example 12, N-{4-[3-(3,4,5-Trimethoxy-phenyl)-quinoxalin-5-yl]-phenyl}-methanesulfonamide]: the IC50 on GST-JAK1(866-1154) is 180 nM; on GST-JAK2(808-1132) it was 52.5 nM; on GST-JAK3(811-1124), above 10000 nM.
In the case of `COc1cc(-c2cnc3cccc(-c4ccc(CN5CCOCC5)cc4)c3n2)cc(OC)c1OC` [Example 15, 8-(4-Morpholin-4-ylmethyl-phenyl)-2-(3,4,5-trimethoxy-phenyl)-quinoxaline], the IC50 at GST-JAK3(811-1124) is above 10000 nM.
On to `COc1cc(-c2cnc3cccc(-c4ccc(C(=O)N5CCOCC5)c(C)c4)c3n2)cc(OC)c1OC` [Example 16, {2-Methyl-4-[3-(3,4,5-trimethoxy-phenyl)-quinoxalin-5-yl]-phenyl}-morpholin-4-yl-methanone], for which the IC50 on GST-JAK2(808-1132) came to 19 nM.
`COc1cc(-c2cnc3cccc(-c4ccc(CN5CCS(=O)(=O)CC5)cc4)c3n2)cc(OC)c1OC` [Example 19, 8-[4-(1,1-Dioxido-thiomorpholin-4-ylmethyl)-phenyl]-2-(3,4,5-trimethoxy-phenyl)-quinoxaline]: the half-inhibitory concentration (IC50) at GST-JAK1(866-1154) was 59 nM.
For the compound `COc1cc(-c2cnc3cccc(-c4ccc(CN5CCOCC5)c(F)c4)c3n2)cc(OC)c1OC` [Example 20, 8-(3-Fluoro-4-morpholin-4-ylmethyl-phenyl)-2-(3,4,5-trimethoxy-phenyl)-quinoxaline], the IC50 on GST-JAK1(866-1154) came out at 160 nM; on GST-JAK2(808-1132) it was 24 nM.
`COc1cc(-c2cnc3cccc(-c4ccc(CN5CCOCC5)c(C)c4)c3n2)cc(OC)c1OC` [Example 21, 8-(3-Methyl-4-morpholin-4-ylmethyl-phenyl)-2-(3,4,5-trimethoxy-phenyl)-quinoxaline]: the concentration for half-maximal inhibition (IC50) on GST-JAK1(866-1154) came to 1800 nM.
As for `COc1ccc(-c2cnc3cccc(-c4ccc(S(C)(=O)=O)cc4)c3n2)cc1OC` [Example 23, 2-(3,4-Dimethoxy-phenyl)-8-(4-methanesulfonyl-phenyl)-quinoxaline], the IC50 is 200 nM on GST-JAK2(808-1132) and above 10000 nM on GST-JAK3(811-1124).
On the same counts, the results for `CS(=O)(=O)Nc1cccc(-c2cnc3cccc(-c4ccc(CC(=O)N5CCOCC5)cc4)c3n2)c1` [Example 38, N-(3-{8-[4-(2-Morpholin-4-yl-2-oxo-ethyl)-phenyl]-quinoxalin-2-yl}-phenyl)-methanesulfonamide] are 23 nM and 4200 nM.
On the same counts, the results for `CCS(=O)(=O)c1ccc(-c2cccc3ncc(-c4cccc(NS(C)(=O)=O)c4)nc23)cc1` [Example 39, N-{3-[8-(4-Ethanesulfonyl-phenyl)-quinoxalin-2-yl]-phenyl}-methanesulfonamide] are 190 nM and above 10000 nM.
On the same counts, the results for `CCS(=O)(=O)c1ccc(-c2cccc3ncc(-c4ccc(OCCOC)c(OC)c4)nc23)cc1` [Example 47] are 38 nM and above 10000 nM.
Take `CCS(=O)(=O)c1ccc(-c2cccc3ncc(-c4ccc(O)c(OC)c4)nc23)cc1` [Example 77, 4-[8-(4-Ethanesulfonyl-phenyl)-quinoxalin-2-yl]-2-methoxy-phenol]: the IC50 at GST-JAK2(808-1132) was determined as 130 nM; at GST-JAK3(811-1124) it was 9800 nM.
In the case of `COc1cc(-c2cnc3cc(C)cc(-c4ccc(C(=O)N5CCOCC5)cc4)c3n2)cc(OC)c1OC` [Example 79, {4-[7-Methyl-3-(3,4,5-trimethoxy-phenyl)-quinoxalin-5-yl]-phenyl}-morpholin-4-yl-methanone], the IC50 on GST-JAK2(808-1132) was 520 nM; on GST-JAK3(811-1124) it was above 10000 nM.
